Experimental data published in US6653330B2, “Amide-type triazole compounds” (Sankyo Company, Limited, priority 2000, dated 2003).

Row | melting point [°C] | SMILES
1 | 115 | C[C@@H](S[C@H]1CO[C@H](c2ccc(C(=O)Nc3ccc(C#N)c(Cl)c3)cc2)OC1)[C@](O)(Cn1cncn1)c1ccc(F)cc1F
2 | 159 | C[C@@H](C[C@H]1CO[C@H](c2ccc(C(=O)Nc3ccc(C#N)cc3)cc2)OC1)[C@](O)(Cn1cncn1)c1ccc(F)cc1F [Example 4, 4′-Cyano-4-[trans-5-[(2S,3R)-3-(2,4-difluorophenyl)-3-hydroxy-2-methyl-4-(1H-1,2,4-triazol-1-yl)butyl]-1,3-dioxan-2-yl]benzanilide]
3 | 110 | C[C@@H](S[C@H]1CO[C@H](c2ccc(C(=O)Nc3ccc(C#N)cc3)cc2F)OC1)[C@](O)(Cn1cncn1)c1ccc(F)cc1F [Example 5, 4′-Cyano-4-[trans-5-[[(1R,2R)-2-(2,4-difluorophenyl)-2-hydroxy-1-methyl-3-(1H-1,2,4-triazol-1-yl)propyl]thio]-1,3-dioxan-2-yl]-3-fluorobenzanilide]
4 | 188 | C[C@@H](S[C@H]1CO[C@H](c2ccc(C(=O)Nc3ccc(CC#N)cc3)cc2)OC1)[C@](O)(Cn1cncn1)c1ccc(F)cc1F [Example 7, 4′-(Cyanomethyl)-4-[trans-5-[[(1R,2R)-2-(2,4-difluorophenyl)-2-hydroxy-1-methyl-3-(1H-1,2,4-triazol-1-yl)propyl]thio]-1,3-dioxan-2-yl]benzanilide]
5 | 104 | C[C@@H](S[C@H]1CO[C@H](c2ccc(C(=O)Nc3ccc(F)cc3)cc2)OC1)[C@](O)(Cn1cncn1)c1ccc(F)cc1F [Example 10, 4-[trans-5-[[(1R,2R)-2-(2,4-Difluorophenyl)-2-hydroxy-1-methyl-3-(1H-1,2,4-triazol-1-yl)propyl]thio]-1,3-dioxan-2-yl]-4′-fluorobenzanilide]
6 | 210 | C[C@@H](S[C@H]1CO[C@H](c2ccc(C(=O)Nc3ccc(C(F)(F)F)cc3)cc2)OC1)[C@](O)(Cn1cncn1)c1ccc(F)cc1F [Example 11, 4-[trans-5-[[(1R,2R)-2-(2,4-Difluorophenyl)-2-hydroxy-1-methyl-3-(1H-1,2,4-triazol-1-yl)propyl]thio]-1,3-dioxan-2-yl]-4′-(trifluoromethyl)benzanilide]
7 | 180 | C[C@@H](S[C@H]1CO[C@H](c2ccc(C(=O)Nc3ccc(OC(F)(F)F)cc3)cc2)OC1)[C@](O)(Cn1cncn1)c1ccc(F)cc1F [Example 12, 4-[trans-5-[[(1R,2R)-2-(2,4-Difluorophenyl)-2-hydroxy-1-methyl-3-(1H-1,2,4-triazol-1-yl)propyl]thio]-1,3-dioxan-2-yl]-4′-(trifluoromethoxy)benzanilide]
8 | 221 | C[C@@H](S[C@H]1CO[C@H](c2ccc(C(=O)Nc3ccc(Br)cc3)cc2)OC1)[C@](O)(Cn1cncn1)c1ccc(F)cc1F [Example 15, 4′-Bromo-4-[trans-5-[[(1R,2R)-2-(2,4-difluorophenyl)-2-hydroxy-1-methyl-3-(1H-1,2,4-triazol-1-yl)propyl]thio]-1,3-dioxan-2-yl]benzanilide]
9 | 133 | C[C@@H](S[C@H]1CO[C@H](c2ccc(C(=O)Nc3ccncc3)cc2)OC1)[C@](O)(Cn1cncn1)c1ccc(F)cc1F [Example 17, 4-[trans-5-[[(1R,2R)-2-(2,4-Difluorophenyl)-2-hydroxy-1-methyl-3-(1H-1,2,4-triazol-1-yl)propyl]thio]-1,3-dioxan-2-yl]-N-(4-pyridyl)benzamide]
10 | 189 | C[C@@H](S[C@H]1CO[C@H](c2ccc(C(=O)Nc3ccc([N+](=O)[O-])cc3)cc2)OC1)[C@](O)(Cn1cncn1)c1ccc(F)cc1F [Example 18]
11 | 109 | C[C@@H](S[C@H]1CO[C@H](c2ccc(C(=O)Nc3ccc(C#N)c4ccccc34)cc2)OC1)[C@](O)(Cn1cncn1)c1ccc(F)cc1F [Example 19, N-(4-Cyano-1-naphthyl)-4-[trans-5-[[(1R,2R)-2-(2,4-difluorophenyl)-2-hydroxy-1-methyl-3-(1H-1,2,4-triazol-1-yl)propyl]thio]-1,3-dioxan-2-yl]benzamide]
12 | 182 | C[C@@H](S[C@H]1CO[C@H](c2ccc(C(=O)Nc3c(F)c(F)c(C#N)c(F)c3F)cc2)OC1)[C@](O)(Cn1cncn1)c1ccc(F)cc1F [Example 20, 4′-Cyano-4-[trans-5-[[(1R,2R)-2-(2,4-difluorophenyl)-2-hydroxy-1-methyl-3-(1H-1,2,4-triazol-1-yl)propyl]thio]-1,3-dioxan-2-yl]-2′,3′,5′,6′-tetrafluorobenzanilide]
13 | 136 | C[C@@H](S[C@H]1CO[C@H](c2ccc(C(=O)Nc3ccc(C#N)cc3F)cc2)OC1)[C@](O)(Cn1cncn1)c1ccc(F)cc1F [Example 25, 4′-Cyano-2′-fluoro-4-[trans-5-[[(1R,2R)-2-(2,4-difluorophenyl)-2-hydroxy-1-methyl-3-(1H-1,2,4-triazol-1-yl)propyl]thio]-1,3-dioxan-2-yl]benzanilide]
14 | 97 | C[C@@H](S[C@H]1CO[C@H](c2ccc(C(=O)NCc3cccc4ccccc34)cc2)OC1)[C@](O)(Cn1cncn1)c1ccc(F)cc1F [Example 29, 4-[trans-5-[[(1R,2R)-2-(2,4-Difluorophenyl)-2-hydroxy-1-methyl-3-(1H-1,2,4-triazol-1-yl)propyl]thio]-1,3-dioxan-2-yl]-N-[(1-naphthyl)methyl]benzamide]
15 | 230 | C[C@@H](S[C@H]1CO[C@H](c2ccc(C(=O)Nc3ccc(C(N)=O)cc3)cc2)OC1)[C@](O)(Cn1cncn1)c1ccc(F)cc1F [Example 30, 4′-Carbamoyl-4-[trans-5-[[(1R,2R)-2-(2,4-difluorophenyl)-2-hydroxy-1-methyl-3-(1H-1,2,4-triazol-1-yl)propyl]thio]-1,3-dioxan-2-yl]benzanilide]

Continued, compound first:

Row | SMILES | melting point [°C]
16 | C[C@@H](S[C@H]1CO[C@H](c2ccc(C(=O)Nc3ccc(C#N)cc3)cc2)OC1)[C@](O)(Cn1cncn1)c1ccc(F)cc1F [Example 2, 4′-Cyano-4-[trans-5-[[(1R,2R)-2-(2,4-difluorophenyl)-2-hydroxy-1-methyl-3-(1H-1,2,4-triazol-1-yl)propyl]thio]-1,3-dioxan-2-yl]benzanilide] | 176
17 | C[C@@H](S[C@H]1CO[C@H](c2cccc(C(=O)Nc3ccc(C#N)cc3)c2)OC1)[C@](O)(Cn1cncn1)c1ccc(F)cc1F [Example 6, 4′-Cyano-3-[trans-5-[[(1R,2R)-2-(2,4-difluorophenyl)-2-hydroxy-1-methyl-3-(1H-1,2,4-triazol-1-yl)propyl]thio]-1,3-dioxan-2-yl]benzanilide] | 105
18 | C[C@@H](S[C@H]1CO[C@H](c2ccc(C(=O)Nc3ccc(Cl)cc3)cc2)OC1)[C@](O)(Cn1cncn1)c1ccc(F)cc1F [Example 8, 4′-Chloro-4-[trans-5-[[(1R,2R)-2-(2,4-difluorophenyl)-2-hydroxy-1-methyl-3-(1H-1,2,4-triazol-1-yl)propyl]thio]-1,3-dioxan-2-yl]benzanilide] | 210
19 | C[C@@H](S[C@H]1CO[C@H](c2ccc(C(=O)Nc3ccc(SC(F)(F)F)cc3)cc2)OC1)[C@](O)(Cn1cncn1)c1ccc(F)cc1F [Example 13, 4-[trans-5-[[(1R,2R)-2-(2,4-Difluorophenyl)-2-hydroxy-1-methyl-3-(1H-1,2,4-triazol-1-yl)propyl]thio]-1,3-dioxan-2-yl]-4′-(trifluoromethylthio)benzanilide] | 95
20 | Cc1ccc(NC(=O)c2ccc([C@H]3OC[C@H](S[C@H](C)[C@](O)(Cn4cncn4)c4ccc(F)cc4F)CO3)cc2)cc1 [Example 14, 4-[trans-5-[[(1R,2R)-2-(2,4-Difluorophenyl)-2-hydroxy-1-methyl-3-(1H-1,2,4-triazol-1-yl)propyl]thio]-1,3-dioxan-2-yl]-4′-methylbenzanilide] | 101
21 | C[C@@H](S[C@H]1CO[C@H](c2ccc(C(=O)Nc3ccc(C#N)c(C#N)c3)cc2)OC1)[C@](O)(Cn1cncn1)c1ccc(F)cc1F [Example 21, 3′,4′-Dicyano-4-[trans-5-[[(1R,2R)-2-(2,4-difluorophenyl)-2-hydroxy-1-methyl-3-(1H-1,2,4-triazol-1-yl)propyl]thio]-1,3-dioxan-2-yl]benzanilide] | 182
22 | CC(=O)c1ccc(NC(=O)c2ccc([C@H]3OC[C@H](S[C@H](C)[C@](O)(Cn4cncn4)c4ccc(F)cc4F)CO3)cc2)cc1 [Example 22, 4′-Acetyl-4-[trans-5-[[(1R,2R)-2-(2,4-difluorophenyl)-2-hydroxy-1-methyl-3-(1H-1,2,4-triazol-1-yl)propyl]thio]-1,3-dioxan-2-yl]benzanilide] | 171
23 | CC(=O)Oc1ccc(NC(=O)c2ccc([C@H]3OC[C@H](S[C@H](C)[C@](O)(Cn4cncn4)c4ccc(F)cc4F)CO3)cc2)cc1 [Example 24, 4′-Acetoxy-4-[trans-5-[[(1R,2R)-2-(2,4-difluorophenyl)-2-hydroxy-1-methyl-3-(1H-1,2,4-triazol-1-yl)propyl]thio]-1,3-dioxan-2-yl]benzanilide] | 127
24 | C[C@@H](S[C@H]1CO[C@H](c2ccc(C(=O)Nc3nccs3)cc2)OC1)[C@](O)(Cn1cncn1)c1ccc(F)cc1F [Example 27, 4-[trans-5-[[(1R,2R)-2-(2,4-Difluorophenyl)-2-hydroxy-1-methyl-3-(1H-1,2,4-triazol-1-yl)propyl]thio]-1,3-dioxan-2-yl]-N-(2-thiazolyl)benzamide] | 108
25 | C[C@@H](S[C@H]1CO[C@H](c2ccc(C(=O)Nc3nc4ccccc4s3)cc2)OC1)[C@](O)(Cn1cncn1)c1ccc(F)cc1F [Example 28, N-(Benzothiazol-2-yl)-4-[trans-5-[[(1R,2R)-2-(2,4-difluorophenyl)-2-hydroxy-1-methyl-3-(1H-1,2,4-triazol-1-yl)propyl]thio]-1,3-dioxan-2-yl]benzamide] | 107
